Key:
[1] = target: Alpha-1B adrenergic receptor (Mesocricetus auratus) (UniProt P18841); test: Binding affinity was tested on cloned hamster Alpha-1B adrenergic receptor
[2] = target: T1, 3-oxo-5-alpha-steroid 4-dehydrogenase 1 (Homo sapiens, UniProt P18405); test: Binding affinity for human 5 alpha reductase 1 isozyme
T1 sequence (P18405 whole entry): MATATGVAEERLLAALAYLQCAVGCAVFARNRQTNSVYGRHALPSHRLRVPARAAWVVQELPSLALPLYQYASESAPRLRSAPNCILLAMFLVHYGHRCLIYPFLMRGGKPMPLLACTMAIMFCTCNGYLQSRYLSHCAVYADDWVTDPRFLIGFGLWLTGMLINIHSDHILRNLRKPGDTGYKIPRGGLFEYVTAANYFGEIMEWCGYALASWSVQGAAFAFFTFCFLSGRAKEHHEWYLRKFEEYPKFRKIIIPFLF

Sequence of Alpha-1B adrenergic receptor (Mesocricetus auratus) (P18841 whole entry, looked up): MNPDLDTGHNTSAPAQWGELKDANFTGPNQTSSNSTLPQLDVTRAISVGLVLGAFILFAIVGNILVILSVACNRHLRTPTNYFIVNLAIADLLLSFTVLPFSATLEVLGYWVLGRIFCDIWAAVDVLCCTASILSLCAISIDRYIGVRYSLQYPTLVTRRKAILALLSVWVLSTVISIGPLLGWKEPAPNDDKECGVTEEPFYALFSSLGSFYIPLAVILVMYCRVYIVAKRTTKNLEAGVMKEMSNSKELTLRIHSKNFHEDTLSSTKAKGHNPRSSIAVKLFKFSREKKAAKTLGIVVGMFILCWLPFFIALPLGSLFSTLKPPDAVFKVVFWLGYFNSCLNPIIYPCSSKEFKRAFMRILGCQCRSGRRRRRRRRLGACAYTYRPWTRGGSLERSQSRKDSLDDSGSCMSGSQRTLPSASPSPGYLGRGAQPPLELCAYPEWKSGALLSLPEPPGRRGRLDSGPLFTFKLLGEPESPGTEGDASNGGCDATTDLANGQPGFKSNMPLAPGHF

SMILES | IC50 [1] [pM] | Ki [2] [pM]
COc1ccc(CC2c3cc(OC)c(OC)cc3CCN2c2nc(N)c3cc(OC)c(OC)cc3n2)cc1OC (stereo not drawn) [2-[1-(3,4-Dimethoxy-benzyl)-6,7-dimethoxy-3,4-dihydro-1H-isoquinolin-2-yl]-6,7-dimethoxy-quinazolin-4-ylamine] | 206000 | 
CC1C(=O)CC[C@@]2(C)C1=NCC1C2CC[C@@]2(C)C1CC[C@@H]2C(=O)Nc1cc(C(F)(F)F)ccc1C(F)(F)F (stereo partly drawn) [(1S,9aR,11aS)-6,9a,11a-Trimethyl-7-oxo-2,3,3a,3b,4,5,7,8,9,9a,9b,10,11,11a-tetradecahydro-1H-cyclopenta[i]phenanthridine-1-carboxylic acid (2,5-bis-trifluoromethyl-phenyl)-amide] |  | 200
C[C@]12CCC(=O)C(Cl)C1=NCC1C2CC[C@@]2(C)C1CC[C@@H]2C(=O)Nc1cc(C(F)(F)F)ccc1C(F)(F)F (stereo partly drawn) [(1S,9aR,11aS)-6-Chloro-9a,11a-dimethyl-7-oxo-2,3,3a,3b,4,5,7,8,9,9a,9b,10,11,11a-tetradecahydro-1H-cyclopenta[i]phenanthridine-1-carboxylic acid (2,5-bis-trifluoromethyl-phenyl)-amide] |  | 200

— BindingDB's records for doi:10.1021/jm960697s (Pfizer, 1997)
